# PubChem BioAssay AID1963423 (Molecular Pharmacology Branch, DTP, NCI, 2024)
# System: 439559-082-T-J2-PDC complex spheroid growth
# Test: Anticancer human tumor 439559-082-T-J2-PDC patient-derived colon adenocarcinoma cell line growth inhibition [Asc]
# Settings: for IC50: curve of first compound; for viability, T/C: stronger effect = lower value
# Method in brief: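 Stromal components (HUVEC and hMSC) are co-assembled with the cancer cells into multicellular spheroids. Drugs are then added singly or paired, at concentrations falling by half-log increments from a clinically achievable maximum, capped at 10 microM without known Cmax.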
# 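Also: spheroids exposed to agents for 7 days starting day 3 after seeding.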
# 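For viability, T/C in this document: percent of DMSO vehicle control viability with 100% = vehicle.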
compound,measurement,setting,value
COc1c(OCCCN2CCOCC2)ccc2c3n(c(=NC(=O)c4cnc(N)nc4)nc12)CCN3 + Cc1c(S(C)(=O)=O)c(-c2cc(F)cc(N3CCN(c4ccc(NS(=O)(=O)c5ccc(NC(CCN6CCC(C(=O)OCCCP(=O)(O)O)CC6)CSc6ccccc6)c(S(=O)(=O)C(F)(F)F)c5)cc4)CC3)c2)c(-c2ccc(Cl)cc2)n1C(C)C,IC50,second compound 0.1 µM,> 1000 nM
same,IC50,second compound 0.316 µM,> 1000 nM
same,IC50,second compound 1 µM,> 1000 nM
same,IC50,second compound 3.16 µM,312 nM
same,IC50,second compound 10 µM,101 nM
same,"viability, T/C","second compound 0.1 µM, first compound 0.00316 µM",97.8%
same,"viability, T/C","second compound 0.1 µM, first compound 0.01 µM",98.6%
same,"viability, T/C","second compound 0.1 µM, first compound 0.0316 µM",85.8%
same,"viability, T/C","second compound 0.1 µM, first compound 0.1 µM",63.8%
same,"viability, T/C","second compound 0.1 µM, first compound 0.316 µM",67.1%
same,"viability, T/C","second compound 0.1 µM, first compound 1 µM",55%
same,"viability, T/C","second compound 0.316 µM, first compound 0.00316 µM",95.9%
same,"viability, T/C","second compound 0.316 µM, first compound 0.01 µM",97.9%
same,"viability, T/C","second compound 0.316 µM, first compound 0.0316 µM",90.8%
same,"viability, T/C","second compound 0.316 µM, first compound 0.1 µM",63.4%
same,"viability, T/C","second compound 0.316 µM, first compound 0.316 µM",62%
same,"viability, T/C","second compound 0.316 µM, first compound 1 µM",54.1%
same,"viability, T/C","second compound 1 µM, first compound 0.00316 µM",90.2%
same,"viability, T/C","second compound 1 µM, first compound 0.01 µM",89.7%
same,"viability, T/C","second compound 1 µM, first compound 0.0316 µM",82.6%
same,"viability, T/C","second compound 1 µM, first compound 0.1 µM",64.6%
same,"viability, T/C","second compound 1 µM, first compound 0.316 µM",59%
same,"viability, T/C","second compound 1 µM, first compound 1 µM",49.7%
same,"viability, T/C","second compound 3.16 µM, first compound 0.00316 µM",85.6%
same,"viability, T/C","second compound 3.16 µM, first compound 0.01 µM",84.8%
same,"viability, T/C","second compound 3.16 µM, first compound 0.0316 µM",79.9%
same,"viability, T/C","second compound 3.16 µM, first compound 0.1 µM",59.5%
same,"viability, T/C","second compound 3.16 µM, first compound 0.316 µM",50.8%
same,"viability, T/C","second compound 3.16 µM, first compound 1 µM",48%
same,"viability, T/C","second compound 10 µM, first compound 0.00316 µM",69%
same,"viability, T/C","second compound 10 µM, first compound 0.01 µM",84.7%
same,"viability, T/C","second compound 10 µM, first compound 0.0316 µM",72%
same,"viability, T/C","second compound 10 µM, first compound 0.1 µM",50.4%
same,"viability, T/C","second compound 10 µM, first compound 0.316 µM",36.9%
same,"viability, T/C","second compound 10 µM, first compound 1 µM",37.2%
